Experiments:
Type in all cases: cell-based, Escherichia coli
E. coli ATCC 43888 = test: Reaction mixture streak plate, visual observation; details: 2.5 wt. % lactic acid only (Niaproof 08 0), room temperature
Method: The tests were performed at room temperature.

E. coli SAC-2 [1] = test: Log kill / surviving titer in aqueous bacterial suspension, plating on TSA; details: for Log Kill (TSA): lactic acid alone, plated on TSA
Method: In each instance a target sample was employed using approximately 50 micro liters of an SAC-2 culture. E. coli “SAC-2,” was a Gram-negative strain isolated from municipal sewage. The tests were performed at room temperature, i.e., 75 deg. F. […] The results of each test sample were evaluated using a series of 10-fold dilutions as needed to determine, on a standard plating agar (TSA), the titer of bacteria that survived the antimicrobial treatment.
The same procedure was employed as in Example 2, but the only agent added to the target solution was Niaproof 08. No lactic acid was employed.
The mixture was then diluted and plated as previously described.
Increasing amounts of reagent were added to a series of test tubes. […] The bacterial titer of each mixture was determined by preparation and plating of serial dilutions on TSA.
[…] […] The amphoteric and zwitterionic surfactants, which carry a net positive charge under the conditions of the reaction mixture, caused enhancement of the log kill by lactic acid. All anionic surfactants tested caused substantial enhancement of the log kill by lactic acid.

E. coli ATTC 12435 = test: Lactic acid treatment followed by contact with surfactant (bile salts) on VRBA; details: quenched, then plated on VRBA (bile salts, neutral pH)
Method: (§1) VRBA was designed for the enumeration of coliform bacteria by selecting against most other common bacteria. The principal difference between TSA and VRBA—besides the presence of indicator dyes in VRBA—is the inclusion of bile salts in the VRBA. Historically, bile salts were added to media used to culture intestinal bacteria in order to mimic the intestinal environment more closely. Bile salts also happen to be anionic surfactants.
(§2) Plating of serial dilutions of E. coli SAC-2 made in dilute phosphate buffer (pH 7.2) on VRBA was completed in less than 15 minutes after termination of individual reaction mixtures by addition of quench buffer (phosphate, pH 7.2). Thus, contact with the surfactant in VRBA was made in less than 15 minutes and more than 8 minutes after reaction termination.
The observations were confirmed with E. coli ATTC 12435 as follows: […]

[2] = system: E. coli ATCC 43888 (O157:H7); test: Log kill in aqueous bacterial suspension, plating on TSA; details: for Lactic Acid (Log Kill): 2.5% lactic acid, 73 deg. F.; for Log Kill: lactic acid alone, ca. 75 deg. F., TSA
E. coli SAC-2 [3] = test: Lactic acid treatment followed by contact with surfactant (bile salts) on VRBA; details: quenched, then plated on VRBA (bile salts, neutral pH)
Method: as §1, §2

E. coli ATCC 12435 = test: Log kill / surviving titer in aqueous bacterial suspension, plating on TSA; details: for Log Kill (TSA): lactic acid alone, plated on TSA
Method: The “reaction” (i.e. interaction of antimicrobial agent and the target organism) was initiated by the addition of bacteria to the antimicrobial solution. The reaction was allowed to proceed for the respective time periods listed in Table I (i.e., at least 15 seconds each) and was terminated at the end of that time by adding quench buffer comprising 3.2 M potassium phosphate buffer, pH 7.2. The sample then was evaluated using serial 10-fold dilutions into sterile phosphate buffer as needed to determine, on Tryptic Soy agar (“TSA”), the titer of surviving bacteria. TSA is a medium that allows the growth of most bacteria.
The reduction in the bacterial count is expressed as the “log kill” which is defined as log10 [initial cfu/ml]−log10 [remaining cfu/ml]; where “cfu” refers to “colony forming unit.” All log kills reported herein are positive “base 10.”). Inasmuch as the standard assay mixture contained only ca. 25×10^6 cfu initially (equivalent to 7.398 log) the theoretical maximum kill that can be measured with this assay system is ca. 7.4 log and the practical measuring limit is ca. 6 log. Therefore, high levels of log reduction were monitored by plating reaction mixtures directly (without dilution) onto agar medium. The results are reported in Table I and illustrated in graph format in FIG. 1. […] The tests were replicated with E. coli ATCC 43888, a pathogenic strain of E. coli O157:H7. […]
After incubation for 15 seconds at ambient temperature the reaction was quenched by addition of phosphate buffer and the titer of surviving bacteria was determined by plating on TSA as described in the previous examples. […] The amphoteric and zwitterionic surfactants, which carry a net positive charge under the conditions of the reaction mixture, caused enhancement of the log kill by lactic acid. All anionic surfactants tested caused substantial enhancement of the log kill by lactic acid.

E. coli ATCC 14235 = test: Log kill in aqueous bacterial suspension, plating on TSA; details: lactic acid alone, ca. 75 deg. F.
Method: The tests were performed at ambient temperature (ca. 75 deg. F.). The “reaction” (i.e. interaction of antimicrobial agent and the target organism) was initiated by the addition of bacteria to the antimicrobial solution. The reaction was allowed to proceed for the respective time periods listed in Table I (i.e., at least 15 seconds each) and was terminated at the end of that time by adding quench buffer comprising 3.2 M potassium phosphate buffer, pH 7.2. The sample then was evaluated using serial 10-fold dilutions into sterile phosphate buffer as needed to determine, on Tryptic Soy agar (“TSA”), the titer of surviving bacteria. TSA is a medium that allows the growth of most bacteria.
The reduction in the bacterial count is expressed as the “log kill” which is defined as log10 [initial cfu/ml]−log10 [remaining cfu/ml]; where “cfu” refers to “colony forming unit.” All log kills reported herein are positive “base 10.”). Inasmuch as the standard assay mixture contained only ca. 25×10^6 cfu initially (equivalent to 7.398 log) the theoretical maximum kill that can be measured with this assay system is ca. 7.4 log and the practical measuring limit is ca. 6 log. Therefore, high levels of log reduction were monitored by plating reaction mixtures directly (without dilution) onto agar medium. The results are reported in Table I and illustrated in graph format in FIG. 1. […] The tests were replicated with E. coli ATCC 43888, a pathogenic strain of E. coli O157:H7.

[4] = 2.5 wt. % lactic acid only (Niaproof 08 0.00)

## CC(O)C(=O)O (stereo not drawn) [Lactic Acid, lactic acid, reference compound]
E. coli ATCC 43888
  Description/Observation: Extensive bacterial growth.
E. coli SAC-2 [1]; 2.5% lactic acid only, paired control of the surfactant in that line, 15 seconds, 74 to 80 degrees F.
  Log Kill (Lactic Acid): 0.083 log
E. coli SAC-2 [1]; [4]
  Enhancement Factor (log10 kill with lactic acid and surfactant divided by log10 kill with lactic acid only): 1.00
E. coli SAC-2 [1]; 2.5 wt. % lactic acid only (Niaproof 08 0.00), 15 seconds, room temperature
  Log Kill: 0.456 log
E. coli SAC-2 [1]; […] lactic acid only (Niaproof 08 0.00), 15 seconds, 75 degrees F.
  Log Kill […] Lactic Acid: 0.336 log
E. coli SAC-2 [1]; 15 secs
  Log Kill (TSA): 0.188 log
E. coli SAC-2 [1]; 30 secs
  Log Kill (TSA): 0.439 log
E. coli SAC-2 [1]; 45 secs
  Log Kill (TSA): 0.801 log
E. coli ATTC 12435; lactic acid 15 secs
  Log Kill (VRBA): 5.328 log
E. coli ATTC 12435; lactic acid 30 secs
  Log Kill (VRBA): 5.328 log
E. coli ATTC 12435; lactic acid 45 secs
  Log Kill (VRBA): 5.328 log
E. coli ATTC 12435; lactic acid 60 secs
  Log Kill (VRBA): 5.328 log
[2]; 2.5% lactic acid only (sodium lauryl sulfate 0)
  in 2.5% Lactic Acid (Log Kill): 2.2 log
[2]; pH 2.19, 20 secs.
  Lactic Acid (Log Kill): 2.44 log
[2]; pH 2.42, 20 secs.
  Lactic Acid (Log Kill): 2.71 log
[2]; pH 2.59, 20 secs.
  Lactic Acid (Log Kill): 1.81 log
[2]; pH 2.74, 20 secs.
  Lactic Acid (Log Kill): 1.21 log
[2]; pH 2.86, 20 secs.
  Lactic Acid (Log Kill): 0.732 log
[2]; pH 3.24, 20 secs.
  Lactic Acid (Log Kill): 0.117 log
[2]; pH 3.67, 20 secs.
  Lactic Acid (Log Kill): 0.041 log
[2]; […] lactic acid only (sodium lauryl sulfate 0), 15 seconds, 75 degrees F.
  in […] Lactic Acid (Log Kill): 0.403 log
[2]; 15 secs
  Log Kill: 1.24 log
[2]; 30 secs
  Log Kill: 1.76 log
[2]; 45 secs
  Log Kill: 1.89 log
[2]; 60 secs
  Log Kill: 2.63 log
E. coli SAC-2 [3]; lactic acid 15 secs
  Log Kill (VRBA): 0.509 log
E. coli SAC-2 [3]; lactic acid 30 secs
  Log Kill (VRBA): 2.812 log
E. coli SAC-2 [3]; lactic acid 45 secs
  Log Kill (VRBA): 3.330 log
E. coli ATCC 12435; 2.5% lactic acid only, paired control of Niaproof 08, 15 seconds, 83 degrees F.
  Log Kill (Lactic Acid): 2.28 log
E. coli ATCC 12435; [4]
  Enhancement Factor: 1.0
  Log Kill: 2.283 log
E. coli ATCC 12435; 15 secs
  Log Kill (TSA): 1.431 log
E. coli ATCC 12435; 30 secs
  Log Kill (TSA): 2.217 log
E. coli ATCC 12435; 45 secs
  Log Kill (TSA): 3.246 log
E. coli ATCC 12435; 60 secs
  Log Kill (TSA): 3.722 log
E. coli ATCC 14235; 15 secs
  Log Kill: 1.431 log
E. coli ATCC 14235; 30 secs
  Log Kill: 2.217 log
E. coli ATCC 14235; 45 secs
  Log Kill: 3.246 log
E. coli ATCC 14235; 60 secs
  Log Kill: 3.722 log

Source: patent US20140272041A1, “METHODS OF REDUCING PATHOGENS DURING PROCESSING OR POST-PROCESSING OF BEEF, POULTRY AND OTHER MEAT PRODUCTS” (BIRKO Corporation, priority 2009, published 2014)
